# Patent US9452986B2, “6-heteroaryloxy- or 6-aryloxy-quinoline-2-carboxamides and method of use” (AbbVie Inc., priority 2014, dated 2016)
# Where two headings read alike, the source gives them in different places.
# Legend:
# osteoarthritic rats = experiment: Osteoarthritic (OA) pain induced by sodium monoiodoacetate (MIA), hind limb grip force; assay type: in vivo, rat; conditions: Rattus norvegicus, 480 h, rat, 20 days following MIA injection, hind limb grip force, read-out: OA MPE; for inhibition in vivo at 10 mg/kg: OA dose 10 mg/kg; for inhibition in vivo at 30 mg/kg: OA dose 30 mg/kg
# Protocol: Osteoarthritic (OA) Pain Induced by Sodium Monoiodoacetate (MIA)
# Pain behavior was assessed by measurement of hind limb grip force (GF) in adult osteoarthritic rats. Male Sprague Dawley rats, obtained from Charles River Laboratories, (Wilmington, Mass.), weighing 150-175 g, were injected in the unilateral knee join with a single intra-articular injection of sodium monoiodoacetate (MIA, 3 mg/rat). All rats were tested at 20 days following MIA injection. A behavioral measure of activity-induced pain was carried out. Measurements of the peak hind limb grip force were conducted by recording the maximum compressive force (CFmax), in grams of force, exerted on a hind limb strain gauge setup, in a commercially available grip force measurement system (Columbus Instruments, Columbus, Ohio).
# During testing, each rat was gently restrained by grasping it around its rib cage and then allowed to grasp the wire mesh frame attached to the strain gauge. The experimenter then moved the animal in a rostral-to-caudal direction until the grip was broken. Each rat was sequentially tested twice at an approximately 2-3 minute interval to obtain a raw mean grip force (CFmax). This raw mean grip force data was in turn converted to a maximum hindlimb cumulative compressive force (CFmax), as the grams of force/kg of body weight, for each animal.
# For evaluating the compound effects, the hind limb grip force was conducted 20 days following the intra-articular injection of MIA. A group of age-matched naïve (not injected with MIA) animals was added as a comparator to the drug-dosed groups. The vehicle control response for each group of MIA-treated animals was defined as the 0% response (0% effect), whereas the naïve control group was defined as the normal response and as 100% effect. The % effect for each dose group was expressed as % return of response to normalcy, compared to the naïve group. A percent maximal possible effect (% MPE) of testing compound was calculated according to the formula: (Treatment CFmax−Vehicle CFmax)/Vehicle CFmax]×100). Higher % effect numbers indicate increased relief from the pain in the model, with 100% indicating a return to the level of response seen in normal (non-osteoarthritic) animals. All experiments evaluating drug effects in this model were conducted in a randomized blinded fashion.
# The animals were housed in Association for Assessment and Accreditation of Laboratory Animal Care (AAALAC) approved facilities at AbbVie Inc. in a temperature-regulated environment under a controlled 12-hour light-dark cycle, with lights on at 6:00 a.m. Food and water were available ad libitum at all times except during testing. All testing was done following procedures outlined in protocols approved by AbbVie Inc.'s Institutional Animal Care and Use Committee.
# recombinant human Nav1.7 = recombinant human Nav1.7 (Homo sapiens (Human), UniProt Q15858); experiment: FRET-based membrane potential assay, recombinant human sodium channel Nav1.7; assay type: cell-based
# Chain of recombinant human Nav1.7 (Q15858 whole entry): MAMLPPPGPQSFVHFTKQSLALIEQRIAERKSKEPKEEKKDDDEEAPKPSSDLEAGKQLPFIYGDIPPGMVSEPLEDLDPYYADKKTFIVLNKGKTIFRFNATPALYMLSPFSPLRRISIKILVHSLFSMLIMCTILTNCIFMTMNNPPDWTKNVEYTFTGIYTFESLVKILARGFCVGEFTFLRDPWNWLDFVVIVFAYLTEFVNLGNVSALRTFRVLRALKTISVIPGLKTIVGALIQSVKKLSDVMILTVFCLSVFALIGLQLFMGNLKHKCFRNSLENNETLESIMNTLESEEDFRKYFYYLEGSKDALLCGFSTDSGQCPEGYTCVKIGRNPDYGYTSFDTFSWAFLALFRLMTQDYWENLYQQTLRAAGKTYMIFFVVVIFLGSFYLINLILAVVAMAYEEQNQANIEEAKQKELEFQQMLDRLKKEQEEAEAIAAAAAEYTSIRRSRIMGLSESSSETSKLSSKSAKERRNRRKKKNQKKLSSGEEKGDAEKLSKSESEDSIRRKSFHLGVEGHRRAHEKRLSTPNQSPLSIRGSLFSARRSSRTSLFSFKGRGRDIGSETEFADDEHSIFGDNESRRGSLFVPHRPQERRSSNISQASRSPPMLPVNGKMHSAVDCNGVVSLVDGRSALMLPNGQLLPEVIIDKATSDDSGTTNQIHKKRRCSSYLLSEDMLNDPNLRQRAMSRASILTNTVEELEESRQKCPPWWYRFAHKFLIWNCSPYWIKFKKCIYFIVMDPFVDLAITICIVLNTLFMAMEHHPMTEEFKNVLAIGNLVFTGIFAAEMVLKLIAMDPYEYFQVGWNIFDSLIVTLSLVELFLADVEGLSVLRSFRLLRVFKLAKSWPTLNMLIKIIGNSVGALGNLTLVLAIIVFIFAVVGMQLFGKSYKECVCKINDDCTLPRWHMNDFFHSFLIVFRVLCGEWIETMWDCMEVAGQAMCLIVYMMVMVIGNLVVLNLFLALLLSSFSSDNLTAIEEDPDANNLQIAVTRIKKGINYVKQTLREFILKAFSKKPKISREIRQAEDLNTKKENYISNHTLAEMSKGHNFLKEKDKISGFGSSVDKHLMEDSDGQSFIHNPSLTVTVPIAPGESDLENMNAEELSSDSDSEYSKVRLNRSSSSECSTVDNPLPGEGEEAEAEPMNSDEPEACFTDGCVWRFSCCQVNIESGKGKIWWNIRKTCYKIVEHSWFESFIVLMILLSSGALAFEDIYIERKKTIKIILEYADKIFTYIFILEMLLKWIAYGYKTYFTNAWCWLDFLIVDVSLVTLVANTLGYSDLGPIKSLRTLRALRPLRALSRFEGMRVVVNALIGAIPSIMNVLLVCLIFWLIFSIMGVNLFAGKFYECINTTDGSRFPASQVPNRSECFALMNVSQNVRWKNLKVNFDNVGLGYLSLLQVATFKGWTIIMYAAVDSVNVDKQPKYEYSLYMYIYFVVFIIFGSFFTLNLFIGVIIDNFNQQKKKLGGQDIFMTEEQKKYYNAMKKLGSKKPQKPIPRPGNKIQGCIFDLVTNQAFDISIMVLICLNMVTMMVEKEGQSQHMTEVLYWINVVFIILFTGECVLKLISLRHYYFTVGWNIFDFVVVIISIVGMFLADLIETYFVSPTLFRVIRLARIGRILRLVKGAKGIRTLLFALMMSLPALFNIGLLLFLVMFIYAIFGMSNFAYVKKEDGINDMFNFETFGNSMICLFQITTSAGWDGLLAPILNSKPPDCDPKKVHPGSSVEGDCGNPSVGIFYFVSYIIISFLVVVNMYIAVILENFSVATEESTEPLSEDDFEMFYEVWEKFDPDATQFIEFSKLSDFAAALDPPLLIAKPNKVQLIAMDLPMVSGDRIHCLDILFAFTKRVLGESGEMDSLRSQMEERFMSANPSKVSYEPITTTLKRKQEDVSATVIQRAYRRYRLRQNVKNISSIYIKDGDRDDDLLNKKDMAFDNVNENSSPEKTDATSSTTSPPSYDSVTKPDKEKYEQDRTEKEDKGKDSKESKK
# Outline: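 Channel activation used veratridine at its EC80, set by a dilution curve each experiment, together with Leiurus scorpion venom, added 3 min after compound. Membrane-potential ratio signals from FLIPR Tetra in HEPES-buffered HBSS were fitted to a four-parameter Hill equation for percent inhibition and IC50.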
# [1] = HEK293 cells stably expressing recombinant human Nav1.7, veratridine + scorpion venom depolarization, read-out: FRET-Membrane Potential Nav1.7 IC50
# [2] = read-out: FRET-Membrane Potential Nav1.7 IC50
SMILES,inhibition in vivo at 10 mg/kg (osteoarthritic rats) [%],IC50 (recombinant human Nav1.7; [1]) [nM],IC50 (recombinant human Nav1.7; [2]) [nM],IC50 (recombinant human Nav1.7; FRET-Membrane Potential Nav1.7 IC50) [nM],inhibition in vivo at 30 mg/kg (osteoarthritic rats) [%]
"O=C(c1ccc2cc(Oc3ccc(C(F)(F)F)cn3)ccc2n1)N1C[C@@H](O)[C@@H](O)C1 [Example 9, [cis-3,4-dihydroxypyrrolidin-1-yl](6-{[5-(trifluoromethyl)pyridin-2-yl]oxy}quinolin-2-yl)methanone]",68,2080,,,
"C[C@@H]1CN(C(=O)c2ccc3cc(Oc4ccc(C(F)(F)F)cn4)ccc3n2)CCN1 [Example 12, [(3R)-3-methylpiperazin-1-yl](6-{[5-(trifluoromethyl)pyridin-2-yl]oxy}quinolin-2-yl)methanone]",79,,348,,
"C[C@H]1CN(C(=O)c2ccc3cc(Oc4ccc(C(F)(F)F)cn4)ccc3n2)CCN1 [Example 13, [(3S)-3-methylpiperazin-1-yl](6-{[5-(trifluoromethyl)pyridin-2-yl]oxy}quinolin-2-yl)methanone]",44,,454,,
"O=C(NC1CCS(=O)(=O)CC1)c1ccc2cc(Oc3ccc(C(F)(F)F)cn3)ccc2n1 [Example 15, N-(1,1-dioxidotetrahydro-2H-thiopyran-4-yl)-6-{[5-(trifluoromethyl)pyridin-2-yl]oxy}quinoline-2-carboxamide]",52,1090,,,
"CC[C@@H]1CN(C(=O)c2ccc3cc(Oc4ccc(C(F)(F)F)cn4)ccc3n2)CCN1 [Example 16, [(3R)-3-ethylpiperazin-1-yl](6-{[5-(trifluoromethyl)pyridin-2-yl]oxy}quinolin-2-yl)methanone]",57,406,,,
"O=C(c1ccc2cc(Oc3ccc(C(F)(F)F)cn3)ccc2n1)N1CCN[C@@H](CO)C1 [Example 17, [(3R)-3-(hydroxymethyl)piperazin-1-yl](6-{[5-(trifluoromethyl)pyridin-2-yl]oxy}quinolin-2-yl)methanone]",19,,3120,,
"O=C(NCCN1CCOCC1)c1ccc2cc(Oc3ccc(C(F)(F)F)cn3)ccc2n1 [Example 21, N-[2-(morpholin-4-yl)ethyl]-6-{[5-(trifluoromethyl)pyridin-2-yl]oxy}quinoline-2-carboxamide]",35,529,,,
"O=C(N[C@@H]1CS(=O)(=O)C[C@H]1O)c1ccc2cc(Oc3ccc(C(F)(F)F)cn3)ccc2n1 [Example 24, N-[(3S,4S)-4-hydroxy-1,1-dioxidotetrahydrothiophen-3-yl]-6-{[5-(trifluoromethyl)pyridin-2-yl]oxy}quinoline-2-carboxamide]",62,,1580,,
"O=C(N[C@H]1CS(=O)(=O)C[C@H]1O)c1ccc2cc(Oc3ccc(C(F)(F)F)cn3)ccc2n1 [Example 26, N-[(3R,4S)-4-hydroxy-1,1-dioxidotetrahydrothiophen-3-yl]-6-{[5-(trifluoromethyl)pyridin-2-yl]oxy}quinoline-2-carboxamide]",67,,1990,,
"O=C(c1ccc2cc(Oc3ccc(C(F)(F)F)cn3)ccc2n1)N1CC(=O)N2CCC[C@H]2C1 [Example 27, (8aS)-2-[(6-{[5-(trifluoromethyl)pyridin-2-yl]oxy}quinolin-2-yl)carbonyl]hexahydropyrrolo[1,2-a]pyrazin-4(1H)-one]",49,1100,,,
"CC(C)(O)CNC(=O)c1ccc2cc(Oc3ccc(C(F)(F)F)cn3)ccc2n1 [Example 30, N-(2-hydroxy-2-methylpropyl)-6-{[5-(trifluoromethyl)pyridin-2-yl]oxy}quinoline-2-carboxamide]",66,793,,,
"O=C(NC1CC[S+]([O-])CC1)c1ccc2cc(Oc3ccc(C(F)(F)F)cn3)ccc2n1 (centres unmarked) [Example 32, N-(1-oxidotetrahydro-2H-thiopyran-4-yl)-6-{[5-(trifluoromethyl)pyridin-2-yl]oxy}quinoline-2-carboxamide]",23,,535,,
"O=C(N[C@H]1C[C@@H](O)C1)c1ccc2cc(Oc3ccc(C(F)(F)F)cn3)ccc2n1 [Example 34, N-(cis-3-hydroxycyclobutyl)-6-{[5-(trifluoromethyl)pyridin-2-yl]oxy}quinoline-2-carboxamide]",41,,,841,
"O=C(NCC1CCO1)c1ccc2cc(Oc3ccc(C(F)(F)F)cn3)ccc2n1 (centres unmarked) [Example 37, N-(oxetan-2-ylmethyl)-6-{[5-(trifluoromethyl)pyridin-2-yl]oxy}quinoline-2-carboxamide]",29,392,,,
"C[C@@H](O)CNC(=O)c1ccc2cc(Oc3ccc(C(F)(F)F)cn3)ccc2n1 [Example 38, N-[(2R)-2-hydroxypropyl]-6-{[5-(trifluoromethyl)pyridin-2-yl]oxy}quinoline-2-carboxamide]",30,,311,,
"O=C(c1ccc2cc(Oc3ccc(C(F)(F)F)cn3)ccc2n1)N1CCNC2(CC2)C1 [Example 39, 4,7-diazaspiro[2.5]oct-7-yl(6-{[5-(trifluoromethyl)pyridin-2-yl]oxy}quinolin-2-yl)methanone]",,735,,,43
"O=C1CC(NC(=O)c2ccc3cc(Oc4ccc(C(F)(F)F)cn4)ccc3n2)CCN1 (centres unmarked) [Example 40, N-(2-oxopiperidin-4-yl)-6-{[5-(trifluoromethyl)pyridin-2-yl]oxy}quinoline-2-carboxamide]",59,,285,,
"CO[C@H]1C[C@@H](NC(=O)c2ccc3cc(Oc4ccc(C(F)(F)F)cn4)ccc3n2)C1 [Example 41, N-(cis-3-methoxycyclobutyl)-6-{[5-(trifluoromethyl)pyridin-2-yl]oxy}quinoline-2-carboxamide]",67,1270,,,
"CN(C)C(=O)CNC(=O)c1ccc2cc(Oc3ccc(C(F)(F)F)nc3)ccc2n1 [Example 42, N-[2-(dimethylamino)-2-oxoethyl]-6-{[6-(trifluoromethyl)pyridin-3-yl]oxy}quinoline-2-carboxamide]",64,1790,,,
"C[C@H]1CN(C(=O)c2ccc3cc(Oc4ccc(C(F)F)cn4)ccc3n2)CCN1 [Example 43, (6-{[5-(difluoromethyl)pyridin-2-yl]oxy}quinolin-2-yl) [(3S)-3-methylpiperazin-1-yl]methanone]",71,3060,,,
"O=C(NC1CC(=O)N(c2ccc(F)cc2)C1)c1ccc2cc(Oc3ccc(C(F)(F)F)cn3)ccc2n1 (centres unmarked) [Example 54, N-[1-(4-fluorophenyl)-5-oxopyrrolidin-3-yl]-6-{[5-(trifluoromethyl)pyridin-2-yl]oxy}quinoline-2-carboxamide]",21,409,,,
"COCC1CN(C(=O)c2ccc3cc(Oc4ccc(C(F)(F)F)cn4)ccc3n2)C1 [Example 60, [3-(methoxymethyl)azetidin-1-yl](6-{[5-(trifluoromethyl)pyridin-2-yl]oxy}quinolin-2-yl)methanone]",23,1260,,,
"CN(C)C(=O)CNC(=O)c1ccc2cc(Oc3ccc(C(F)F)cn3)ccc2n1 [Example 441, 6-{[5-(difluoromethyl)pyridin-2-yl]oxy}-N-[2-(dimethylamino)-2-oxoethyl]quinoline-2-carboxamide]",22,,1150,,
"N#CC1CN(C(=O)c2ccc3cc(Oc4ccc(C(F)(F)F)cn4)ccc3n2)CCN1 (centres unmarked) [Example 483, 4-[(6-{[5-(trifluoromethyl)pyridin-2-yl]oxy}quinolin-2-yl)carbonyl]piperazine-2-carbonitrile]",55,,3610,,
"CN(CC(F)(F)F)C(=O)c1ccc2cc(Oc3ccc(C(F)(F)F)cn3)ccc2n1 [Example 616, N-methyl-N-(2,2,2-trifluoroethyl)-6-{[5-(trifluoromethyl)pyridin-2-yl]oxy}quinoline-2-carboxamide]",,2630,,,28
